IC50 data for 25 molecules are collected here from patent US10913738B2 (BRISTOL-MYERS SQUIBB COMPANY, priority 2017, dated 2021).

Each structure is given as a SMILES string. Where two headings read alike, the source gives them in different places. Bounds are passed on as bounds.

Assay [1] concerns the target T1, His-GST-TVMV-hRIPK1(1-324) (Homo sapiens, UniProt Q13546).
T1 construct: The coding region of human RIPK1(1-324) flanked by NdeI site at 5′ end; made in house; host or cells: Spodoptera frugiperda (Sf9) insect cells, baculovirus
T1 sequence (Q13546 1-324): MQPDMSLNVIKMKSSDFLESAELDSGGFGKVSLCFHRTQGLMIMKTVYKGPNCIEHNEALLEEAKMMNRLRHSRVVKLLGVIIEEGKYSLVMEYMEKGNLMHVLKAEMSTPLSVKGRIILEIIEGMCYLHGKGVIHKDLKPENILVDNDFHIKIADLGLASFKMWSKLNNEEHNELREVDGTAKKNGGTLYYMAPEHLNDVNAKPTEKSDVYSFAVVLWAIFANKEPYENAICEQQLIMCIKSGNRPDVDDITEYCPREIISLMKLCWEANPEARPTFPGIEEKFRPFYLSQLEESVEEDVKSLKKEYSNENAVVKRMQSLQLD
The experiment in a line: RIPK1 HTRF Binding Assay.

The test system of assay [2] is MLKL phosphorylation in HT29-L23 human colorectal adenocarcinoma cells. Kind of assay: MLKL Phosphorylation High-Content Assay. The format is cell-based. To be noted: Homo sapiens. A digest of the protocol:
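IC50 and Ymax obtained by 4-parameter logistic fitting of MLKL phosphorylation, measured as mean circ-ring average intensity ratio from high-content images. Staining used an anti-phospho-S358 MLKL antibody overnight at 4° C., following six-hour cell incubation at 37° C.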

Where [3] appears, read: x marks IC50 class <20 nM, read-out: RIPK1 HTRF binding <20 nM.
The mark [4] stands for this setting: x marks IC50 class 20-200 nM, read-out: pMLKL cell activity 20-200 nM.
Where [5] appears, read: x marks IC50 class 20-200 nM, read-out: RIPK1 HTRF binding 20-200 nM.
Where [6] appears, read: x marks IC50 class >200 nM, read-out: pMLKL cell activity >200 nM.
Setting [7] is: x marks IC50 class <20 nM, read-out: pMLKL cell activity <20 nM.

Take `CNc1ncc(-c2ccn3nc(N)nc3c2)cc1C(=O)NCCC(C)c1ccccc1` (centres unmarked) [Example 70, 5-{2-Amino-[1,2,4]triazolo[1,5-a]pyridin-7-yl}-2-(methylamino)-N-(3-phenylbutyl)pyridine-3-carboxamide]: the IC50 in assay [1] (setting [3]) is under 20 nM; in assay [2] (setting [4]), 20 to 200 nM.

`CC(CCNC(=O)c1ccnc(-c2ccn3nc(N)nc3c2)c1)c1ccccc1` (centres unmarked) [Example 72, 2-{2-Amino-[1,2,4]triazolo[1,5-a]pyridin-7-yl}-N-(3-phenylbutyl)pyridine-4-carboxamide]: the IC50 in assay [1] (setting [5]) was 20 to 200 nM; in assay [2] (setting [6]), over 200 nM.

For the molecule `CC(CCNC(=O)c1cncc(-c2ccn3nc(N)nc3c2)c1)c1ccccc1` (centres unmarked) [Example 73, 5-{2-Amino-[1,2,4]triazolo[1,5-a]pyridin-7-yl}-N-(3-phenylbutyl)pyridine-3-carboxamide], the IC50 in assay [1] (setting [3]) is under 20 nM; in assay [2] (setting [6]) it was over 200 nM.

On to `COc1ncc(-c2ccn3nc(N)nc3c2)cc1C(=O)NCCC(O)c1ccc(F)c(F)c1` (centres unmarked) [Example 77, 5-{2-Amino-[1,2,4]triazolo[1,5-a]pyridin-7-yl}-N-[3-(3,4-difluorophenyl)-3-hydroxypropyl]-2-methoxypyridine-3-carboxamide], for which the IC50 in assay [1] (setting [5]) and in assay [2] (setting [4]) was 20 to 200 nM throughout.

For the molecule `COc1ncc(-c2ccn3nc(N)nc3c2)cc1C(=O)NCCC(O)c1ccc(F)cc1` (centres unmarked) [Example 78, 5-{2-Amino-[1,2,4]triazolo[1,5-a]pyridin-7-yl}-N-[3-(4-fluorophenyl)-3-hydroxypropyl]-2-methoxypyridine-3-carboxamide], the IC50 in assay [1] (setting [5]) and in assay [2] (setting [4]) was 20 to 200 nM each time.

On to `COc1ncc(-c2ccn3nc(N)nc3c2)cc1C(=O)NCc1ccc(F)cc1OC1CCOCC1` [Example 80, 5-{2-Amino-[1,2,4]triazolo[1,5-a]pyridin-7-yl}-N-{[4-fluoro-2-(oxan-4-yloxy)phenyl]methyl}-2-methoxypyridine-3-carboxamide], for which the IC50 in assay [1] (setting [3]) was under 20 nM; in assay [2] (setting [4]), 20 to 200 nM.

As for `COc1ncc(-c2ccn3nc(N)nc3c2)cc1C(=O)NCc1ccccc1OCC1CC1` [Example 81, 5-{2-Amino-[1,2,4]triazolo[1,5-a]pyridin-7-yl}-N-{[2-(cyclopropylmethoxy)phenyl]methyl}-2-methoxypyridine-3-carboxamide], the IC50 in assay [1] (setting [3]) and in assay [2] (setting [7]) was under 20 nM in each case.

Turning to `COc1ncc(-c2ccn3nc(N)nc3c2)cc1C(=O)Nc1cnn(Cc2ccccc2)c1` [Example 84, 5-{2-Amino-[1,2,4]triazolo[1,5-a]pyridin-7-yl}-N-(1-benzyl-1H-pyrazol-4-yl)-2-methoxypyridine-3-carboxamide], the IC50 in assay [1] (setting [5]) and in assay [2] (setting [4]) was 20 to 200 nM throughout.

In the case of `CCc1ncc(-c2ccn3nc(N)nc3c2)cc1C(=O)NCc1cc(OC(F)(F)F)ccc1F` [Example 86, 5-{2-amino-[1,2,4]triazolo[1,5-a]pyridin-7-yl}-2-ethyl-N-{[2-fluoro-5-(trifluoromethoxy)phenyl]methyl}pyridine-3-carboxamide], the IC50 in assay [1] (setting [3]) was under 20 nM; in assay [2] (setting [4]), 20 to 200 nM.

`[2H]C([2H])(NC(=O)c1cc(-c2ccn3nc(N)nc3c2)cnc1OC)c1cc(OC(F)(F)F)ccc1F` [Example 87, 5-{2-amino-[1,2,4]triazolo[1,5-a]pyridin-7-yl}-N-{[2-fluoro-5-(trifluoromethoxy)phenyl] (deutero)methyl}-2-methoxypyridine-3-carboxamide]: the IC50 in assay [1] (setting [3]) was under 20 nM; in assay [2] (setting [4]) it was 20 to 200 nM.

For `[2H]C([2H])(NC(=O)c1cc(-c2ccn3nc(N)nc3c2)cnc1OC)c1cc(F)cc(F)c1OCC1CC1` [Example 88, 5-{2-amino-[1,2,4]triazolo[1,5-a]pyridin-7-yl}-N-{[2-(cyclopropylmethoxy)-3,5-difluorophenyl](deutero)methyl}-2-methoxypyridine-3-carboxamide], the IC50 in assay [1] (setting [3]) and in assay [2] (setting [7]) was under 20 nM each time.

Take `[2H]C([2H])([2H])Oc1ncc(-c2ccn3nc(N)nc3c2)cc1C(=O)NCc1ccccc1OC(F)(F)F` [Example 90, 5-{2-amino-[1,2,4]triazolo[1,5-a]pyridin-7-yl}-2-(deutero)methoxy-N-{[2-(trifluoromethoxy)phenyl]methyl}pyridine-3-carboxamide]: the values for the IC50 in assay [1] (setting [3]) and in assay [2] (setting [4]) were under 20 nM and 20 to 200 nM, respectively.

For `[2H]C([2H])([2H])Oc1ncc(-c2ccn3nc(N)nc3c2)cc1C(=O)NCc1cc(C(F)(F)F)ccc1F` [Example 91, 5-{2-amino-[1,2,4]triazolo[1,5-a]pyridin-7-yl}-N-{[2-fluoro-5-(trifluoromethyl)phenyl]methyl}-2-(deutero)methoxypyridine-3-carboxamide], the IC50 in assay [1] (setting [5]) and in assay [2] (setting [4]) was 20 to 200 nM in each case.

Regarding `[2H]C([2H])([2H])Oc1ncc(-c2ccn3nc(N)nc3c2)cc1C(=O)NCc1cc(OC(F)(F)F)ccc1F` [Example 92, 5-{2-amino-[1,2,4]triazolo[1,5-a]pyridin-7-yl}-N-{[2-fluoro-5-(trifluoromethoxy)phenyl]methyl}-2-(deutero)methoxypyridine-3-carboxamide], the IC50 in assay [1] (setting [3]) and in assay [2] (setting [7]) was under 20 nM in each case.

Take `[2H]C([2H])([2H])Oc1ncc(-c2ccn3nc(N)nc3c2)cc1C(=O)NC([2H])([2H])c1cc(OC(F)(F)F)ccc1F` [Example 93, 5-{2-amino-[1,2,4]triazolo[1,5-a]pyridin-7-yl}-N-{[2-fluoro-5-(trifluoromethoxy)phenyl] (deutero)methyl}-2-(deutero)methoxypyridine-3-carboxamide]: the IC50 in assay [1] (setting [3]) was under 20 nM; in assay [2] (setting [4]), 20 to 200 nM.

Take `[2H]C([2H])([2H])Oc1ncc(-c2ccn3nc(N)nc3c2)cc1C(=O)NCc1cc(F)cc(F)c1OCC1CC1` [Example 94, 5-{2-amino-[1,2,4]triazolo[1,5-a]pyridin-7-yl}-N-{[2-(cyclopropylmethoxy)-3,5-difluorophenyl]methyl}-2-(deutero)methoxypyridine-3-carboxamide]: the IC50 in assay [1] (setting [3]) and in assay [2] (setting [7]) was under 20 nM throughout.

On to `[2H]C([2H])([2H])c1ncc(-c2ccn3nc(N)nc3c2)cc1C(=O)NCc1cc(OC(F)(F)F)ccc1F` [Example 96, 5-{2-amino-[1,2,4]triazolo[1,5-a]pyridin-7-yl}-N-{[2-fluoro-5-(trifluoromethoxy)phenyl]methyl}-2-(deutero)methylpyridine-3-carboxamide], for which the values for the IC50 in assay [1] (setting [3]) and in assay [2] (setting [4]) were under 20 nM and 20 to 200 nM, respectively.

With `COc1ncc(-c2ccn3nc(N)nc3c2)cc1C(=O)N[C@H]1C[C@@H]1c1ccccc1` [Example 100, 5-{2-amino-[1,2,4]triazolo[1,5-a]pyridin-7-yl}-2-methoxy-N-[(1S,2R)-2-phenylcyclopropyl]pyridine-3-carboxamide], the IC50 was 20 to 200 nM in assay [1] (setting [5]) and over 200 nM in assay [2] (setting [6]).

Take `COc1ncc(-c2ccn3nc(N)nc3c2)cc1C(=O)NCc1ccc(F)cc1OC(=O)N(C)C` [Example 103]: the IC50 is 20 to 200 nM in assay [1] (setting [5]) and over 200 nM in assay [2] (setting [6]).

In the case of `COc1ncc(-c2ccn3nc(N)nc3c2)cc1C(=O)NCc1ccccc1S(=O)(=O)C(C)C` [Example 104, 5-{2-amino-[1,2,4]triazolo[1,5-a]pyridin-7-yl}-2-methoxy-N-{[2-(propane-2-sulfonyl)phenyl]methyl}pyridine-3-carboxamide], the values for the IC50 in assay [1] (setting [3]) and in assay [2] (setting [6]) were under 20 nM and over 200 nM, respectively.

With `COc1ncc(-c2ccn3nc(N)nc3c2)cc1C(=O)NCc1ccccc1CN1CCOCC1` [Example 105, 5-{2-amino-[1,2,4]triazolo[1,5-a]pyridin-7-yl}-2-methoxy-N-({2-[(morpholin-4-yl)methyl]phenyl}methyl)pyridine-3-carboxamide], the values for the IC50 in assay [1] (setting [3]) and in assay [2] (setting [6]) were under 20 nM and over 200 nM, respectively.

On to `COc1ncc(-c2ccn3nc(N)nc3c2)cc1C(=O)NCc1ccccc1-c1ccccc1` [Example 106, 5-{2-amino-[1,2,4]triazolo[1,5-a]pyridin-7-yl}-N-({[1,1′-biphenyl]-2-yl}methyl)-2-methoxypyridine-3-carboxamide], for which the IC50 in assay [1] (setting [3]) and in assay [2] (setting [7]) was under 20 nM in each case.

Take `COc1ncc(-c2ccn3nc(N)nc3c2)cc1C(=O)Nc1cnn(C(c2ccccc2)c2ccccc2)c1` [Example 107, 5-{2-amino-[1,2,4]triazolo[1,5-a]pyridin-7-yl}-N-[1-(diphenylmethyl)-1H-pyrazol-4-yl]-2-methoxypyridine-3-carboxamide]: the values for the IC50 in assay [1] (setting [5]) and in assay [2] (setting [6]) were 20 to 200 nM and over 200 nM, respectively.

Turning to `COc1ncc(-c2ccn3nc(N)nc3c2)cc1C(=O)NCc1ccccc1N1CCC(C)CC1` [Example 108, 5-{2-amino-[1,2,4]triazolo[1,5-a]pyridin-7-yl}-2-methoxy-N-{[2-(4-methylpiperidin-1-yl)phenyl]methyl}pyridine-3-carboxamide], the IC50 in assay [1] (setting [3]) and in assay [2] (setting [7]) was under 20 nM each time.

Regarding `COc1ncc(-c2ccn3nc(N)nc3c2)cc1C(=O)NCc1ccccc1Oc1ccccn1` [Example 109, 5-{2-amino-[1,2,4]triazolo[1,5-a]pyridin-7-yl}-2-methoxy-N-{[2-(pyridin-2-yloxy)phenyl]methyl}pyridine-3-carboxamide], the IC50 in assay [1] (setting [3]) and in assay [2] (setting [7]) was under 20 nM throughout.
